# In the supplement of paper PMC13380429:
# How the values were obtained:
# Conditions in all cases: 72 h
# Caco-2 [1] = test: cell viability relative to DMSO; higher = less toxic
# Calu-3 [2] = test: as above
# HepG2 [3] = test: as above
# U2OS [4] = test: as above
# Vero E6 [5] = test: as above
# Caco-2 [6] = test: relative viability EC50 (midpoint between 100% and the lowest measured viability); higher = less toxic
# Calu-3 [7] = test: as above
# HepG2 [8] = test: as above
# U2OS [9] = test: as above
# Vero E6 [10] = test: as above
# Caco-2 [11] = test: drug sensitivity score (DSS) for viability; higher = more toxic; extreme values may be limits of the assay
# Calu-3 [12] = test: as above
# HepG2 [13] = test: as above
# U2OS [14] = test: as above
# Vero E6 [15] = test: as above
Structure (SMILES),cell viability (Caco-2 [1]; 1 nM) [%],cell viability (Caco-2 [1]; 10 nM) [%],cell viability (Caco-2 [1]; 100 nM) [%],cell viability (Caco-2 [1]; 1000 nM) [%],cell viability (Caco-2 [1]; 10000 nM) [%],cell viability (Calu-3 [2]; 1 nM) [%],cell viability (Calu-3 [2]; 10 nM) [%],cell viability (Calu-3 [2]; 100 nM) [%],cell viability (Calu-3 [2]; 1000 nM) [%],cell viability (Calu-3 [2]; 10000 nM) [%],cell viability (HepG2 [3]; 1 nM) [%],cell viability (HepG2 [3]; 10 nM) [%],cell viability (HepG2 [3]; 100 nM) [%],cell viability (HepG2 [3]; 1000 nM) [%],cell viability (HepG2 [3]; 10000 nM) [%],cell viability (U2OS [4]; 1 nM) [%],cell viability (U2OS [4]; 10 nM) [%],cell viability (U2OS [4]; 100 nM) [%],cell viability (U2OS [4]; 1000 nM) [%],cell viability (U2OS [4]; 10000 nM) [%],cell viability (Vero E6 [5]; 1 nM) [%],cell viability (Vero E6 [5]; 10 nM) [%],cell viability (Vero E6 [5]; 100 nM) [%],cell viability (Vero E6 [5]; 1000 nM) [%],cell viability (Vero E6 [5]; 10000 nM) [%],relative viability EC50 (Caco-2 [6]) [µM],relative viability EC50 (Calu-3 [7]) [µM],relative viability EC50 (HepG2 [8]) [µM],relative viability EC50 (U2OS [9]) [µM],relative viability EC50 (Vero E6 [10]) [µM],drug sensitivity score (Caco-2 [11]),drug sensitivity score (Calu-3 [12]),drug sensitivity score (HepG2 [13]),drug sensitivity score (U2OS [14]),drug sensitivity score (Vero E6 [15])
CC1(C)C(=O)N(CCN2CCC(C(=O)c3ccc(F)cc3)CC2)c2ccccc21,88.5,102,104,97.2,91.6,99.5,91.4,90.6,98.4,89.8,95.3,102,90.8,97,87.8,97.7,96.3,98.2,95.9,97.8,96.1,102,91.8,94.2,106,> 10,> 10,> 10,> 10,> 10,0,0,0,0,0
CCS(=O)(=O)N1CCC[C@@H]2CN3CCc4cc(OC)ccc4[C@@H]3C[C@@H]21,94.7,94.2,95,104,91.7,103,90.4,109,101,103,99.9,113,109,92.2,102,99.5,103,108,108,106,96.3,103,97.1,93.8,105,> 10,> 10,> 10,> 10,> 10,0,0,0,0,0
COc1ccc2cccc(N3CCN(CCNC(=O)c4ccc(F)cc4)CC3)c2c1,98.3,95.3,98.3,90.6,86.2,96.6,105,104,106,83,99.2,98.9,97.4,95.4,89.5,95.7,103,92.7,96.4,90.4,103,104,97.5,94,89.3,> 10,> 10,> 10,> 10,> 10,0.3,0.2,0,0,0
COc1ccccc1N1CCN(CCCCNC(=O)c2ccc(-c3ccc(C(C)=O)cc3)cc2)CC1,93.7,94.5,119,106,110,101,92.6,110,102,96.5,104,104,96.4,94.6,83.8,101,95.8,102,98.4,101,104,99.5,101,102,95.5,> 10,> 10,> 10,> 10,> 10,0,0,0.5,0,0
C[C@@H](NCc1cc(Br)cc2nc(O)c(O)nc12)P(=O)(O)O,97,100,109,94.4,97.5,103,86,81,110,102,94.2,94,99.4,93.3,89.2,107,97.2,96.6,92.5,98.4,105,105,103,98.8,96.1,> 10,> 10,> 10,> 10,> 10,0,0,0,0,0
Cc1ccc(-n2sc(=O)n(Cc3ccc(F)cc3)c2=O)cc1,99.1,97.7,98.4,100,95.9,104,83.1,110,98.9,94.3,89.2,107,95.9,96.1,96.1,97.9,98.7,99.6,96.1,108,96.4,97.7,97.1,99.1,93.5,> 10,> 10,> 10,> 10,> 10,0,0,0,0,0
O=C(NCCCN1CCCCCC1)C(c1ccccc1)C1CCCCC1 (stereo not given),101,101,105,107,95,111,94.1,102,104,98.8,107,107,100,89,84.7,104,101,101,106,95.7,95.8,96.1,96.5,99.6,94.9,> 10,> 10,> 10,> 10,> 10,0,0,1,0,0
